Measured values reported in BindingDB's records for doi:10.3109/14756366.2012.715286 (Chulalongkorn University, 2013).

Target: T1, Tyrosine-protein phosphatase non-receptor type 1 [1-321] (Homo sapiens, UniProt P18031)
T1 construct: 1-321
T1 sequence (P18031 whole entry): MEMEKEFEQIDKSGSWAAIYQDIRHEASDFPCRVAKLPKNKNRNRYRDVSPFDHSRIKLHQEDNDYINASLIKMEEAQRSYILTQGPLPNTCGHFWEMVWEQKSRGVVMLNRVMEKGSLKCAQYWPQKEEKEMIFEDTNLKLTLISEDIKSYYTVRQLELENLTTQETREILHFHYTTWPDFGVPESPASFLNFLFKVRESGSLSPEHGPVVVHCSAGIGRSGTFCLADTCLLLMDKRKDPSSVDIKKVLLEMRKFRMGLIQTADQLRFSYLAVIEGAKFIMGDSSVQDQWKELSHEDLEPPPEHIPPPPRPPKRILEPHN
Assay: PTP1B Activity Assay
Settings: pH 7.5; 37 °C
Description: PTP1B was diluted before the experiment to 1.2 μg/mL in Tris buffer, pH7.6 (10 mM Tris, 1.0 mM EDTA, 3.0 mM DTT, 0.01% w/v NaN3). The tested compounds were dissolved in DMSO. The enzyme reaction buffer was Tris buffer, pH 7.5 (50 mM Tris, 0.15 M NaCl, 3 mM DTT). A typical 10 μL of tested compounds was added to the enzyme solution (50 μL), and the resulting mixture was preincubated at 37°C for 30 min. The enzyme reaction was initiated by the addition of 8 mM p-NPP (40 μL).

| SMILES | IC50 [µM] |
| --- | --- |
| O=C(O)/C=C/c1ccccc1O [(2E)-3-(2-hydroxyphenyl)prop-2-enoic acid] | 138 |
| O=C(O)/C=C/c1ccc(O)cc1 [p-Coumaric Acid] | 168 |
